Where two headings read alike, the source gives them in different places.
Assays:
[1] = 13-week oral safety study in aged APP23 mice: plasma and brain concentrations of Compound 1 (toxicokinetics); type: in vivo; settings: female, APP23, mouse, 0.3 g/kg food
Procedure: (§1) Sections of brain were collected at necropsy from all scheduled animals. […] Rest of the brain was fixed in 10% neutral-buffered formalin.
Blood was obtained from all the animals at necropsy. Approximately 0.3 mL of whole blood was collected after euthanasia from the vena cava into tubes containing EDTA as anticoagulant. The tubes were placed in ice water during the sampling period. Plasma was separated thereafter by centrifugation (10 min, 1270 G, +4° C.) and transferred to one uniquely labelled clear tube (1.8 mL NUNC 2D coded tubes from Thermo) and frozen at −70° C. or below.
About 100 to 200 mg of brain tissue were collected, weighed into 1.8 mL NUNC 2D coded tubes from Thermo, and frozen at −70° C. or below.

[2] = First-in-human study: safety and tolerability; type: in vivo; settings: healthy elderly subjects ≥60 years
From the text: The purpose of this study was to determine the single and multiple maximum tolerated dose of Compound 1 and to assess the pharmacokinetic/pharmacodynamic (PK/PD) relationship using Aβ in CSF as primary PD biomarker.

[3] = system: Aβ42; assay: Chronic treatment of APP23 mice: Triton TX-100 soluble Aβ42 in brain; type: in vivo, mouse
Procedure: Frozen mouse forebrains were weighed and homogenized in 9 volumes (w/v) of ice-cold TBS-Complete (20 mM Tris-HCl pH 7.4, 137 mM NaCl, 1× Complete [Protease Inhibitor Cocktail Tablets: 1 836 145, Roche Diagnostics GmbH, Penzberg, Germany]) by sonication (90% duty cycle, output control 5, 40-55 pulses, [Sonifier 450, Branson]). After homogenization several 50 μl aliquots were prepared for analysis and were stored at −80° C.
Human Aβ40 and 42 in mice was determined with the Meso Scale Discovery (MSD) 96-well MULTI-ARRAY human/rodent (6E10) Aβ40/42 Assay (Meso Scale Discovery, Rockville, Md., USA) as described in [RD-2010-00284]. The assay was done according to the manufacturer's instructions except for the calibration curve and the sample preparations. […]
The calibration curve was prepared in a corresponding dilution of 1% Blocker A solution spiked with synthetic Aβ1-40 peptide (1.56-100 pg/ml) except for non-transgenic mouse brain samples: In this case, the calibration curve was prepared in a correspondingly diluted APP knockout mouse forebrain spiked with synthetic Aβ1-40 peptide (1.56-100 pg/ml). […] The relative units for samples and standards were imported into SOFTmax PRO 4.0 for calculation of standard curves and quantification of samples. […]

[4] = system: APP23 mice; assay: 13-week oral safety study in aged APP23 mice: post-mortem macroscopic and brain microscopic examination (H&E, Perls' Prussian blue); type: in vivo, mouse
From the text: as §1
Four brain sections were processed and stained with hematoxylin and eosin (H&E) and Perls' Prussian blue for hemosiderin deposits, levels 2, 3, 4, as described in Bolon B et al., 2013, and one additional slide at hypothalamus level (level 2′).
Procedure for brain collection: Cerebellum was separated from cerebrum. Remaining cerebrum (from the anterior to level 5) was transferred into formalin for pathology.
Brain sections stained with haematoxylin and eosin and with Perls' Prussian blue, were examined under a light microscope. The distribution, size and staining intensity of hemosiderin deposits in Perls' Prussian blue-stained sections were assessed based on the grading scheme in Table 37.

[5] = both, APOE4-TR, mouse, in vivo
Procedure: Vehicle or compound was given by oral administration in a volume of 10 ml/kg once. Vehicle: 0.1% Tween80 in 0.5% Methylcellulose in water.
The right brain was fixed in 4% paraformaldehyde, washed in PBS and then embedded in paraffin for possible future histological analyses.

[6] = 3-month dose-ranging study: plasma pharmacokinetics on Day 91; type: in vivo; settings: human, oral, read-out: expected plasma Cmax,ss
[7] = Off-target binding or activity
[8] = aged APP23 mice, brain, H&E, after 3 months treatment
[9] = aged APP23 mice, brain, H&E, after 3 months treatment, Grade 1 = minimal
[10] = aged APP23 mice, brain, H&E, after 3 months treatment, grade 2 = slight
[11] = aged APP23 mice, brain, after 3 months treatment
[12] = aged APP23 mice, brain, after 3 months treatment, Grade 1 = minimal
[13] = aged APP23 mice, brain, after 3 months treatment, grade 2 = slight

C[C@@]1(c2nc(NC(=O)c3ncc(C(F)(F)F)cc3Cl)ccc2F)CO[C@@](C)(C(F)(F)F)C(N)=N1 [Compound 1, N-(6-((3R,6R)-5-amino-3,6-dimethyl-6-(trifluoromethyl)-3,6-dihydro-2H-1,4-oxazin-3-yl)-5-fluoropyridin-2-yl)-3-chloro-5-(trifluoromethyl)picolinamide]
concentration at 13 weeks ([1]; brain (cerebellum, level 7), end of the study): 4030 ng/g
Kp at 96 day ([1]; brain / plasma, day 96, read-out: brain concentration compared to plasma, range): 2.2 to 6.1
Kp at 13 weeks ([1]; brain / plasma, end of the study, read-out: average of the ratio brain over plasma): 3.3
concentration at 13 weeks ([1]; plasma, end of the study): 1210 ng/mL
safety and tolerability ([2]; 300 mg QD over two weeks): safe and tolerated
safety and tolerability ([2]; 750 mg single dose): safe and tolerated
Aβ42 change vs vehicle (TX-100 soluble) ([3]; 0.03 g/kg vs vehicle): −20.1%
Aβ42 change vs vehicle (TX-100 soluble) ([3]; 0.3 g/kg vs vehicle): −77.3%
Blood vessel inflammation ([4]; 3 months treatment): least marked
mineralisation of plaques in the thalamus ([4]; 3 months treatment): no indication of an effect
thrombus formation in affected blood vessels or small areas of previous necrosis (infarct) ([4]; 3 months treatment): not
extent of plaque formation ([4]; 3 months treatment, compared to the other groups): appeared reduced in some
Amyloid plaques, % affected [4, 8]: 100%
Haemorrhage, % affected [4, 8]: 7%
Inflammation, vessel, % affected [4, 8]: 27%
Haemorrhage, number of animals with Grade 1 [4, 9]: 1
Inflammation, vessel, number of animals with Grade 1 [4, 9]: 4
Haemorrhage, number of animals with Grade 2 [4, 10]: 0
Inflammation, vessel, number of animals with Grade 2 [4, 10]: 0
Amyloid plaques, number of animals with Grade 2 ([4]; aged APP23 mice, brain, H&E, after 3 months treatment, grade 2 = slight (notably fewer plaques than controls)): 4
Amyloid plaques, number of animals with Grade 3 ([4]; aged APP23 mice, brain, H&E, after 3 months treatment, grade 3 = moderate (extent in controls)): 11
Haemosiderin (Perls' staining), % affected [4, 11]: 47%
Infarct, % affected [4, 11]: 0%
Mineralisation, % affected [4, 11]: 13%
Thrombus, % affected [4, 11]: 0%
Haemosiderin (Perls' staining), number of animals with Grade 1 [4, 12]: 7
Infarct, number of animals with Grade 1 [4, 12]: 0
Mineralisation, number of animals with Grade 1 [4, 12]: 2
Thrombus, number of animals with Grade 1 [4, 12]: 0
Haemosiderin (Perls' staining), number of animals with Grade 2 [4, 13]: 0
Mineralisation, number of animals with Grade 2 [4, 13]: 0
Thrombus, number of animals with Grade 2 [4, 13]: 0
Haemosiderin (Perls' staining), number of animals with Grade 3 ([4]; aged APP23 mice, brain, after 3 months treatment, grade 3 = moderate): 0
exposure reduction 4 h/24 h [5]: 2-5 fold
AUCbrain (AUC0-24 h) ([5]; 3 umol/kg): 8.67 µmol·h/kg
AUCbrain (AUC0-24 h) ([5]; 10 umol/kg): 15.83 µmol·h/kg
AUCbrain (AUC0-24 h) ([5]; 30 umol/kg): 49.82 µmol·h/kg
Cmax ([6]; once daily dose of 15 mg): 70 to 170 ng/mL
Cmax ([6]; once daily dose of 50 mg): 200 to 500 ng/mL
off-target binding or activity [7]: no relevant off-target binding or activity

Source: patent US10722518B2, “Oxazine derivative for use in the treatment or prevention of cerebral amyloid angiopathy” (Novartis AG, priority 2016, dated 2020)
